Data taken from BigSolDB 2.1.

CCC(CO)(CO)C(=O)O
solubility (mole fraction)
Settings	in 1,4-dioxane	in MIBK	in cyclopentyl methyl ether	in ethyl acetate	in gamma-butyrolactone	in n-butyl acetate	in toluene
298.15 K	0.122	0.0218	0.0121	0.0111	0.0688	0.0119	0.00039
303.15 K	0.153	0.0297	0.013	0.0184	0.0859	0.0125	0.00056
308.15 K	0.176	0.0362	0.0168	0.0228	0.105	0.0129	0.00073
313.15 K	0.201	0.0433	0.0208	0.0281	0.136	0.0153	0.0008
318.15 K	0.217	0.0523	0.0266	0.0338	0.151	0.0228	0.00087
323.15 K	0.259	0.0575	0.032	0.0443	0.173	0.0317	0.00093
328.15 K	0.324	0.07	0.0374	0.0539	0.212	0.0379	0.00093
333.15 K	–	0.077	0.0425	0.0612	0.232	0.0477	0.00099
338.15 K	–	0.0891	0.054	0.069	0.263	0.0619	0.00105
343.15 K	–	0.11	0.0674	–	–	0.0768	–
345.15 K	–	0.121	0.0749	–	–	0.093	–
348.15 K	–	0.132	0.0917	–	–	0.111	–
350.15 K	–	0.156	0.107	–	–	0.132	–
353.15 K	–	0.184	0.133	–	–	0.169	–
